The values below are quoted from earlier work in patent US7129355B2, “Process for preparing kifunensine intermediate and kifunensine therefrom” (Industrial Research Limited, priority 2002, dated 2006).

This data set has as its system plant mannosidase II. The following applies: Elbein et al., J. Biol. Chem. 265, 15599, 1990.

Structures are written as SMILES.

In the case of `O=C1N[C@@H]2[C@@H](O)[C@@H](O)[C@H](O)[C@@H](CO)N2C1=O` [Kifunensine], the “activity toward plant mannosidase II” value is “inactive”.
